# Read-outs that look alike come from different tables or passages of the source.
# Tests used:
# CDK1/Cyclin B = biological target: T1, CDK1/Cyclin B (Homo sapiens, UniProt P06493); experiment: Enzymatic assay for CDK1 (FRET based LANCE Ultra kinase assay); format: biochemical
# T1 construct: purchased Invitrogen PR4768C
# Summary of the method: (§1)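 Each CDK complex ([…]) phosphorylated 68 nM ULight-MBP peptide with ATP at Km for 60 min at 23° C., against 8 compound doses (4-fold dilutions). EDTA/Eu-anti-phospho-MBP detection, 60 min, then TR-FRET emission at 615 and 665 nm.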
# CDK2/Cyclin A = biological target: T2, CDK2/Cyclin A (Homo sapiens, UniProt P24941); experiment: Enzymatic assay for CDK2 (FRET based LANCE Ultra kinase assay); format: biochemical
# T2 construct: purchased Invitrogen PV6290
# Summary of the method: as §1
# CDK5/p25 = biological target: T3, CDK5/p25 (Homo sapiens, UniProt Q00535); experiment: Enzymatic assay for CDK5 (FRET based LANCE Ultra kinase assay); format: biochemical
# T3 construct: purchased Invitrogen PR8543B
# Summary of the method: as §1
# CDK7/Cyclin H/MNAT1 = biological target: T4, CDK7/Cyclin H/MNAT1 (Homo sapiens, UniProt P50613); experiment: Enzymatic assay for CDK7 (FRET based LANCE Ultra kinase assay); format: biochemical
# T4 construct: purchased Invitrogen PR6749B
# Summary of the method: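 LANCE Ultra TR-FRET kinase assay using a ULight-labeled peptide substrate and a Eu-labeled anti-phospho antibody, with ATP at its Km. Purified CDK/cyclin complex was added to compound after brief centrifugation.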
# H460 = experiment: Cellular H460 viability assay (CellTiter-Glo, 72 hours); format: cell-based; conditions: Homo sapiens, NCI-H460
# Summary of the method: (§2)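 Cells plated in 96 wells and exposed to compound 72 h at 37 °C, 5% CO2, final DMSO below 0.1%, DMSO control. Viability by CellTiter-Glo luminescence, duplicate.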
# MV4-11 = experiment: Cellular MV4-11 viability assay (CellTiter-Glo, 72 hours); format: cell-based; conditions: Homo sapiens
# Summary of the method: as §2
# A2780 = experiment: Cellular A2780 viability assay (CellTiter-Glo, 72 hours); format: cell-based; conditions: Homo sapiens
# From the text: Human T-cell acute lymphoblastic leukemia cell line, MOLT-4 (ATCC, Cat #CRL-1582), Human multiple myeloma cell line, RPMI-8226 (Invitrogen, Cat #22400-089) and MM.1S (ATCC, Cat #CRL-2974), NSCLC (Non-small cell lung cancer) cell line H460 (ATCC, Cat #HTB-177), Human colon colorectal carcinoma cell line HCT116 (ATCC, Cat #CCL-247), Human acute monocytic leukemia cell line MV4-11 (ATCC, Cat #CRL-9591), OVCAR-3 (ATCC, Cat #HTB-161) and A2780 (ECACC, Cat #93112519) were obtained from ATCC. Cells were grown in RPMI-1640 media (Invitrogen, Cat #22400-089) supplemented with 10% FBS (Invitrogen, Cat #10099141) and 1% penicillin/streptomycin (Invitrogen, Cat #15070063) and cultured at 37° C., 5% CO2 in a humidified chamber. All cell lines were routinely tested for mycoplasma.
# The effect of the CDK7 inhibitor to inhibit the growth of target cancer cells was evaluated through the 72 hours time period of viability assay. Briefly, the candidate cell line ware plated in 96 well plate at the following density of cells respectively. 1×10^4 cells/well for MOLT-4, RPMI-8226, MV4-11 and MM.1S, 5×10^3 for H460, HCT116 and OVCAR-3 and IX 10^3 for A2780. After 24 hours, the cells were treated with various concentrations of the compound (ranging from 0.0015 uM to 10 uM). DMSO solvent without compound served as a control and final DMSO concentration less than 0.1%. After 72 hours of incubation at 37° C., 5% CO2 incubator, cells were analyzed for the viability using the CellTiter-Glo Luminescent Cell Viability Assay (Promega, Cat #G7570). All viability assays were performed in duplicate and Luminescence was read using an Envision (Perkin Elmer, USA). Data was analyzed using XLfit software.
# [1] = read-out: CDK1 enzymatic activity (IC50 range)
# [2] = read-out: CDK2 enzymatic activity (IC50 range)
# [3] = read-out: CDK5 enzymatic activity (IC50 range)
# [4] = read-out: CDK7 enzymatic activity (IC50 range)
# [5] = read-out: CDK1 enzymatic activity (IC50 activity range)
# [6] = read-out: CDK2 enzymatic activity (IC50 activity range)
# [7] = read-out: CDK5 enzymatic activity (IC50 activity range)
# [8] = read-out: CDK7 enzymatic activity (IC50 activity range)
# T3 sequence (Q00535 whole entry): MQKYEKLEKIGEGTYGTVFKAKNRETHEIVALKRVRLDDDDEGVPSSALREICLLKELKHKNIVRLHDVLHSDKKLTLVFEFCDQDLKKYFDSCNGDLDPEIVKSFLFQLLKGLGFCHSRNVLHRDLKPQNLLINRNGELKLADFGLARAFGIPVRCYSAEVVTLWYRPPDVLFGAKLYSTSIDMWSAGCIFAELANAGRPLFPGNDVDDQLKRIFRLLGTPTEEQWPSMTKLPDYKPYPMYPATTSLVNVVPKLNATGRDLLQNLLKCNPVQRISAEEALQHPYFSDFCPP
# T3 sequence (Q15078 99-307 partner limits assumed): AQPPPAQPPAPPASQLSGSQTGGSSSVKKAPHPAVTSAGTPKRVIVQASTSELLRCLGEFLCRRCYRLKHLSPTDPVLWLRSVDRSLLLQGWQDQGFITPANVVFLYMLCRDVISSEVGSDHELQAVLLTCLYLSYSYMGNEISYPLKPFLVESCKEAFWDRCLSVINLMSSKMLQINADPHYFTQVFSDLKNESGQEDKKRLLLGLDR
# T1 sequence (P06493 whole entry): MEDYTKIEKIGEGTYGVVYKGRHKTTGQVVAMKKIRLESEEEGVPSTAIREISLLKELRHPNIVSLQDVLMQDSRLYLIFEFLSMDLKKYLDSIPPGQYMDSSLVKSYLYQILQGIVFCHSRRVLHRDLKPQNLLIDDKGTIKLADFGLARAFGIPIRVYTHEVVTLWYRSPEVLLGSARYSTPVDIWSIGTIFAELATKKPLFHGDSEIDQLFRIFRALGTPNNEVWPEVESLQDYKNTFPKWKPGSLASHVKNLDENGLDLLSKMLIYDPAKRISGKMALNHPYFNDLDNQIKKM
# T1 sequence (P14635 whole entry partner): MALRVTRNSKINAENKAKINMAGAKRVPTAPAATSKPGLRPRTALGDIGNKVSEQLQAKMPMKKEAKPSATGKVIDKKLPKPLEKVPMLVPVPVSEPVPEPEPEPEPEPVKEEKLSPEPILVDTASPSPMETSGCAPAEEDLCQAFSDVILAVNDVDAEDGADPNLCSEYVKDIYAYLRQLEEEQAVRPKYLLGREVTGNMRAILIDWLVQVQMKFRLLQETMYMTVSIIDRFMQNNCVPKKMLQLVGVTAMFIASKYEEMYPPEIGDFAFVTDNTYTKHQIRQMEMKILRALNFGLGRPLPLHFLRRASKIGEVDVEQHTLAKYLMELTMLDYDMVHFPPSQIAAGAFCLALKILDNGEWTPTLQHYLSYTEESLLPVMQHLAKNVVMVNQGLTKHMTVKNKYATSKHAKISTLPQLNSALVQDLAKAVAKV
# T4 sequence (P50613 whole entry): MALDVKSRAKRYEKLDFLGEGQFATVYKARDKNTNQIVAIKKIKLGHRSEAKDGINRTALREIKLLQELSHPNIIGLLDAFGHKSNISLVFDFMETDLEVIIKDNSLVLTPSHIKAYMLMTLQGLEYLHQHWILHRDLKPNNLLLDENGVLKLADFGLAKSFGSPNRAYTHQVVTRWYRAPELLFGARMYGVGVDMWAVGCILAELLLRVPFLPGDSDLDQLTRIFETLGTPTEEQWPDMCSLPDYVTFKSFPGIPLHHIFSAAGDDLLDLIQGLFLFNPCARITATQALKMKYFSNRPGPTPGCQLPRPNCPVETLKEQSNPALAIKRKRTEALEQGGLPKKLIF
# T4 sequence (P51946 whole entry partner): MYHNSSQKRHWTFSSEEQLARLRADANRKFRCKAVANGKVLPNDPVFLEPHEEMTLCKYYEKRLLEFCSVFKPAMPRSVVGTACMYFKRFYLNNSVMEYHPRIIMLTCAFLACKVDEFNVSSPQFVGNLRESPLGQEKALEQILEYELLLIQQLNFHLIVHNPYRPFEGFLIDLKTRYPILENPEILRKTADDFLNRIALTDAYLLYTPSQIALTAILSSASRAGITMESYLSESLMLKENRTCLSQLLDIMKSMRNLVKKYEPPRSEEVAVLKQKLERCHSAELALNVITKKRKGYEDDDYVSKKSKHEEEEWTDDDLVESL
# T4 sequence (P51948 whole entry partner): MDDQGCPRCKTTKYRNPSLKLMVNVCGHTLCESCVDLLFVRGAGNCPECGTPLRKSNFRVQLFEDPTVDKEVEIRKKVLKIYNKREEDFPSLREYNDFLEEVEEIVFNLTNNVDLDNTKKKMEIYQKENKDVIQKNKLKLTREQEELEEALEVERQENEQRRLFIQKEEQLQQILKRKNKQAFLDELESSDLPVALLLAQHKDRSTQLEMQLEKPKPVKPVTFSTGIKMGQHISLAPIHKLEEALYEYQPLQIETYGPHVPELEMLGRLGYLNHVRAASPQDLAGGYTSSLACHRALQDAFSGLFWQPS
SMILES,IC50 (CDK1/Cyclin B; [1]),IC50 (CDK2/Cyclin A; [2]),IC50 (CDK5/p25; [3]),CDK1/CDK7: Selectivity of CDK7 inhibition over CDK1 inhibition (CDK7/Cyclin H/MNAT1; CDK7 over CDK1),CDK2/CDK7: Selectivity of CDK7 inhibition over CDK2 inhibition (CDK7/Cyclin H/MNAT1; CDK7 over CDK2),CDK5/CDK7: Selectivity of CDK7 inhibition over CDK5 inhibition (CDK7/Cyclin H/MNAT1; CDK7 over CDK5),IC50 (CDK7/Cyclin H/MNAT1; [4]),IC50 (H460),IC50 (MV4-11),IC50 (A2780),IC50 (CDK1/Cyclin B; [5]),IC50 (CDK2/Cyclin A; [6]),IC50 (CDK5/p25; [7]),CDK1/CDK7: Selectivity of CDK7 inhibition over CDK1 inhibition (CDK7/Cyclin H/MNAT1; CDK1/CDK7),CDK2/CDK7: Selectivity of CDK7 inhibition over CDK2 inhibition (CDK7/Cyclin H/MNAT1; CDK2/CDK7),IC50 (CDK7/Cyclin H/MNAT1; [8]),CDK5/CDK7: Selectivity of CDK7 inhibition over CDK5 inhibition (CDK7/Cyclin H/MNAT1; CDK5/CDK7)
CC(C)c1cnn2c(NCc3c(Cl)cccc3-c3cc(C(C)(C)O)n(C)n3)nc(N3CCC(N)CC3)nc12 [Compound 244],> 1 µM,> 1 µM,> 1 µM,A (A=greater than 200 fold),A (A=greater than 200 fold),A (A=greater than 200 fold),< 0.1 µM,< 1 µM,< 1 µM,≤ 1 µM,–,–,–,–,–,–,–
CC(C)c1cnn2c(NCc3c(Cl)cccc3-n3ccc(C(C)(C)O)n3)nc(N3CCC(C)(N)CC3)nc12 [Compound 246],> 1 µM,> 1 µM,> 1 µM,A (A=greater than 200 fold),A (A=greater than 200 fold),A (A=greater than 200 fold),< 0.1 µM,< 1 µM,< 1 µM,≤ 1 µM,–,–,–,–,–,–,–
CC(C)c1cnn2c(NCc3ccccc3-c3ccc4ccccc4n3)nc(NCC[C@H](O)CN)nc12 [Compound 247],> 1 µM,> 1 µM,> 1 µM,A (A=greater than 200 fold),A (A=greater than 200 fold),A (A=greater than 200 fold),< 0.1 µM,1 to 10 µM,1 to 10 µM,1 to 10 µM,–,–,–,–,–,–,–
CC(C)c1cnn2c(NCc3ccccc3-c3ccc4ccccc4n3)nc(NC[C@@H](O)CN)nc12 [Compound 248],> 1 µM,> 1 µM,> 1 µM,A (A=greater than 200 fold),A (A=greater than 200 fold),A (A=greater than 200 fold),< 0.1 µM,< 1 µM,1 to 10 µM,≤ 1 µM,–,–,–,–,–,–,–
CC(C)c1cnn2c(NCc3c(Cl)cccc3-c3ncc(C(C)(C)O)s3)nc(N3CCC(N)CC3)nc12 [Compound 249],–,–,–,–,–,–,–,< 1 µM,< 1 µM,≤ 1 µM,> 1 µM,> 1 µM,> 1 µM,A (A=greater than 200 fold),A (A=greater than 200 fold),< 0.1 µM,A (A=greater than 200 fold)
CC(C)c1cnn2c(NCc3c(Cl)cccc3N3CC[C@H](C(C)(C)O)C3)nc(N3CCC(N)CC3)nc12 [Compound 250],–,–,–,–,–,–,–,1 to 10 µM,1 to 10 µM,1 to 10 µM,> 1 µM,> 1 µM,> 1 µM,A (A=greater than 200 fold),A (A=greater than 200 fold),< 0.1 µM,"B (B=less than 200 fold, but greater than 20 fold)"
CC(C)c1cnn2c(NCc3c(Cl)cccc3-n3ccc(C(C)(C)O)n3)nc(N3CCC(F)(CN)CC3)nc12 [Compound 252],–,–,–,–,–,–,–,< 1 µM,< 1 µM,≤ 1 µM,> 1 µM,> 1 µM,> 1 µM,A (A=greater than 200 fold),A (A=greater than 200 fold),< 0.1 µM,A (A=greater than 200 fold)
CCC(O)(CC)c1ccn(-c2cccc(Cl)c2CNc2nc(N3CCC(N)CC3)nc3c(C(C)C)cnn23)n1 [Compound 253],–,–,–,–,–,–,–,1 to 10 µM,1 to 10 µM,1 to 10 µM,> 1 µM,> 1 µM,> 1 µM,"B (B=less than 200 fold, but greater than 20 fold)","B (B=less than 200 fold, but greater than 20 fold)",0.1 to 1 µM,"B (B=less than 200 fold, but greater than 20 fold)"
CC(C)c1cnn2c(NCc3c(Cl)cccc3N3CC[C@@H](C(C)(C)O)C3)nc(N3CCC(N)CC3)nc12 [Compound 254],–,–,–,–,–,–,–,< 1 µM,< 1 µM,≤ 1 µM,> 1 µM,> 1 µM,0.1 to 1 µM,A (A=greater than 200 fold),"B (B=less than 200 fold, but greater than 20 fold)",< 0.1 µM,"B (B=less than 200 fold, but greater than 20 fold)"
CC(C)c1cnn2c(NCc3ccccc3-c3ccc4ccccc4n3)nc(N3CCCC[C@H]3CCO)nc12 [Compound 260],–,–,–,–,–,–,–,1 to 10 µM,1 to 10 µM,1 to 10 µM,> 1 µM,> 1 µM,> 1 µM,"B (B=less than 200 fold, but greater than 20 fold)","B (B=less than 200 fold, but greater than 20 fold)",0.1 to 1 µM,"B (B=less than 200 fold, but greater than 20 fold)"

# More lines, main results first:
IC50 (CDK1/Cyclin B; [1]),IC50 (CDK2/Cyclin A; [2]),IC50 (CDK5/p25; [3]),CDK1/CDK7: Selectivity of CDK7 inhibition over CDK1 inhibition (CDK7/Cyclin H/MNAT1; CDK7 over CDK1),CDK2/CDK7: Selectivity of CDK7 inhibition over CDK2 inhibition (CDK7/Cyclin H/MNAT1; CDK7 over CDK2),CDK5/CDK7: Selectivity of CDK7 inhibition over CDK5 inhibition (CDK7/Cyclin H/MNAT1; CDK7 over CDK5),IC50 (CDK7/Cyclin H/MNAT1; [4]),IC50 (H460),IC50 (MV4-11),IC50 (A2780),IC50 (CDK1/Cyclin B; [5]),IC50 (CDK2/Cyclin A; [6]),IC50 (CDK5/p25; [7]),CDK1/CDK7: Selectivity of CDK7 inhibition over CDK1 inhibition (CDK7/Cyclin H/MNAT1; CDK1/CDK7),CDK2/CDK7: Selectivity of CDK7 inhibition over CDK2 inhibition (CDK7/Cyclin H/MNAT1; CDK2/CDK7),IC50 (CDK7/Cyclin H/MNAT1; [8]),SMILES,CDK5/CDK7: Selectivity of CDK7 inhibition over CDK5 inhibition (CDK7/Cyclin H/MNAT1; CDK5/CDK7)
–,–,–,–,–,–,–,< 1 µM,< 1 µM,≤ 1 µM,> 1 µM,> 1 µM,0.1 to 1 µM,A (A=greater than 200 fold),A (A=greater than 200 fold),< 0.1 µM,CC(C)c1cnn2c(NCc3cccc4ccc(C(C)(C)O)nc34)nc(N3CCC(N)CC3)nc12 [Compound 255],"B (B=less than 200 fold, but greater than 20 fold)"
–,–,–,–,–,–,–,< 1 µM,< 1 µM,≤ 1 µM,> 1 µM,> 1 µM,> 1 µM,A (A=greater than 200 fold),A (A=greater than 200 fold),< 0.1 µM,Cc1cn(-c2cccc(Cl)c2CNc2nc(N3CCC(N)CC3)nc3c(C(C)C)cnn23)nc1C(C)(C)O [Compound 256],A (A=greater than 200 fold)
–,–,–,–,–,–,–,< 1 µM,< 1 µM,≤ 1 µM,> 1 µM,> 1 µM,> 1 µM,A (A=greater than 200 fold),A (A=greater than 200 fold),< 0.1 µM,CC(C)c1cnn2c(NCc3c(Cl)cccc3-c3cc(C(C)(C)O)nn3C)nc(N3CCC(N)CC3)nc12 [Compound 258],A (A=greater than 200 fold)
–,–,–,–,–,–,–,< 1 µM,1 to 10 µM,≤ 1 µM,> 1 µM,> 1 µM,> 1 µM,A (A=greater than 200 fold),A (A=greater than 200 fold),< 0.1 µM,CCN1CC[C@H](CNc2nc(NCc3ccccc3-c3ccc4ccccc4n3)n3ncc(C(C)C)c3n2)[C@@H](O)C1 [Compound 261],A (A=greater than 200 fold)

# From patent publication US11945822B2, “Pyrazolo-triazine and/or pyrazolo-pxrimidine derivatives as selective inhibitor of cyclin dependent kinase” (QURIENT CO., LTD., priority 2018, dated 2024)
